This is an account of results in PubChem BioAssay AID504664 (Sanford-Burnham Center for Chemical Genomics, 2011).

Activity calls are given as the source filed them.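 Rule for the calls: active = IC50 mean at or below 20 µM; inactive = the rest.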

The test deals with 697 NF-kB-Luc cells, PMA/ionomycin, luciferase luminescence, 16 h. Description: NF-kB reporter inhibition in 697 B cells, SAR follow-up, T-cell antigen receptor NF-kB inhibitors, cell-based, luminescence, set 2 (AID 504664).
Consider `CC(C)(C)NC(=O)CCc1nc(-c2ccc(C(C)(C)C)cc2)no1`, for which the IC50 is 2.5 µM.

`CC(C)CC(=O)NC(c1ccc(C(C)C)cc1)c1ccc2cccnc2c1O` (stereo not given): the IC50 is > 79 µM (inactive).

As for `CC(C)c1ccc(C(NC(=O)C2CCCCC2)c2cc([N+](=O)[O-])c3cccnc3c2O)cc1` (stereo not given), the IC50 is > 79 µM (inactive).

`NS(=O)(=O)c1ccc(NC(=O)c2ccc([N+](=O)[O-])o2)cc1`: the IC50 is 58.9 µM (inactive).

With `O=C(Nc1ccc2c(c1)CCO2)c1ccc([N+](=O)[O-])o1`, the IC50 is > 79 µM (inactive).

Take `Cc1cc(C)cc(NC(=O)c2ccc([N+](=O)[O-])o2)c1`: the IC50 is 31.9 µM (inactive).

Turning to `CNC(=O)CCc1nc(-c2ccc(C(C)(C)C)cc2)no1`, the 50% inhibitory concentration (IC50) was 0.03 µM.

`CCOc1ccc(NC(=O)c2ccc([N+](=O)[O-])o2)cc1`: the IC50 is > 79 µM (inactive).

As to `COc1ccc(C(=O)Nc2ccc(NC(=O)c3cc4ccccc4o3)cc2)cc1OC`, the IC50 is > 79 µM (inactive).

For the compound `CC(=O)NC(c1ccc(C(C)C)cc1)c1ccc2cccnc2c1O` (stereo not given), the IC50 is > 79 µM (inactive).

Take `COc1ccc(C(NC(=O)C(C)C)c2ccc3cccnc3c2O)cc1` (stereo not given): the IC50 is > 79 µM (inactive).

As to `CCOc1ccc(-c2nc(CSCC(=O)NC3CC3)c(C)o2)cc1`, the half-inhibitory concentration (IC50) was 0.21 µM.

Consider `CCNC(=O)CCc1nc(-c2ccc(C(C)(C)C)cc2)no1`, for which the IC50 was under 0.16 µM.

On to `COc1ccc(C(=O)Nc2ccc(NC(=O)c3cc4ccccc4o3)cc2)cc1[N+](=O)[O-]`, for which the IC50 is > 79 µM (inactive).

In the case of `CNC(=O)CCc1nc(-c2ccccc2)no1`, the IC50 is > 79 µM (inactive).

On to `Cc1cc(NC(=O)c2ccc3c(c2)OCCO3)ccc1NC(=O)c1cc2ccccc2o1`, for which the IC50 is 12.9 µM.

Regarding `CCC(=O)NC(c1ccc(N(C)C)cc1)c1ccc2cccnc2c1O` (stereo not given), the IC50 was > 79 µM (inactive).

`Cc1ccc(C(NC(=O)C2CCCCC2)c2ccc3cccnc3c2O)cc1` (stereo not given): the IC50 is > 79 µM (inactive).

As for `CN1CCN(c2ccccc2NC(=O)c2ccc([N+](=O)[O-])o2)CC1`, the IC50 was > 79 µM (inactive).

As for `Cc1cc(NC(=O)c2ccc([N+](=O)[O-])o2)ccc1NC(=O)c1ccco1`, the IC50 is > 79 µM (inactive).

For `COc1ccc(C(=O)Nc2ccc(NC(=O)c3cc4ccccc4o3)cc2)cc1Br`, the IC50 was > 79 µM (inactive).

For `COc1cc2nc(NC(=O)c3ccccc3)sc(=O)c2cc1OC`, the IC50 was 0.86 µM.

Regarding `CCCCC(=O)NC(c1ccc(Cl)cc1Cl)c1ccc2cccnc2c1O` (stereo not given), the IC50 was > 79 µM (inactive).

With `CCCC(=O)NC(c1ccc(C(C)C)cc1)c1ccc2cccnc2c1O` (stereo not given), the IC50 is > 79 µM (inactive).

Consider `CC(=O)N1CCN(c2ccc(NC(=O)c3ccc([N+](=O)[O-])o3)cc2Cl)CC1`, for which the IC50 was 62.3 µM (inactive).

`COc1ccccc1C(NC(C)=O)c1ccc2cccnc2c1O` (stereo not given): the IC50 is > 79 µM (inactive).

As to `O=C(Nc1cccc2ncccc12)c1ccc([N+](=O)[O-])o1`, the IC50 is > 79 µM (inactive).

Take `O=C(Nc1ccc(-c2nc3ncccc3o2)cc1)c1ccc([N+](=O)[O-])o1`: the IC50 was > 79 µM (inactive).

Take `Cc1cc(-c2nc3ncccc3o2)ccc1NC(=O)c1ccc([N+](=O)[O-])o1`: the IC50 was > 79 µM (inactive).

Take `O=C(Nc1ccc(N2CCCC2)c(Cl)c1)c1ccc([N+](=O)[O-])o1`: the IC50 was 61.7 µM (inactive).

With `CCCC(=O)NC(c1ccccc1)c1ccc2cccnc2c1O` (stereo not given), the IC50 was > 79 µM (inactive).

Take `CCN(CC)C(=O)CCc1nc(-c2ccc(C(C)(C)C)cc2)no1`: the IC50 is 60.1 µM (inactive).

Take `CCOc1ccc(C(=O)Nc2ccc(NC(=O)c3cc4ccccc4o3)cc2)cc1[N+](=O)[O-]`: the IC50 is > 79 µM (inactive).

On to `CCCC(=O)NC(c1ccc(C)cc1)c1ccc2cccnc2c1O` (stereo not given), for which the IC50 was > 79 µM (inactive).

Turning to `CCCC(=O)NC(c1ccccc1OC)c1ccc2cccnc2c1O` (stereo not given), the IC50 was > 79 µM (inactive).

Regarding `N#Cc1cccc(NC(=O)c2ccc([N+](=O)[O-])o2)c1`, the IC50 is > 79 µM (inactive).

Take `CCCCC(=O)NC(c1ccc(N(CC)CC)cc1)c1ccc2cccnc2c1O` (stereo not given): the IC50 was > 79 µM (inactive).

Take `COc1ccc(C(NC(=O)Cc2ccccc2)c2ccc3cccnc3c2O)cc1OC` (stereo not given): the IC50 is > 79 µM (inactive).

In the case of `CCCOc1ccc(C(=O)Nc2ccc(NC(=O)c3cc4ccccc4o3)cc2)cc1`, the IC50 was > 79 µM (inactive).

As for `CC(C)c1ccc(C(NC(=O)C2CCCCC2)c2ccc3cccnc3c2O)cc1` (stereo not given), the IC50 is > 79 µM (inactive).

With `O=C(Nc1nc2c(Br)cc(Br)cc2c(=O)s1)c1ccco1`, the IC50 is 4.57 µM.

For `CCCC(=O)NC(c1ccc(OC)cc1)c1ccc2cccnc2c1O` (stereo not given), the IC50 was > 79 µM (inactive).

For `CC(=O)N1CCc2cc(NC(=O)c3ccc([N+](=O)[O-])o3)ccc21`, the IC50 was > 79 µM (inactive).

On to `CCN1CCN(c2c(Cl)cccc2NC(=O)c2ccc([N+](=O)[O-])o2)CC1`, for which the IC50 is 43.7 µM (inactive).

As for `CCCCC(=O)NC(c1ccccc1)c1ccc2cccnc2c1O` (stereo not given), the IC50 was > 79 µM (inactive).

On to `CCCCC(=O)NC(c1ccc(OC)cc1)c1ccc2cccnc2c1O` (stereo not given), for which the IC50 was > 79 µM (inactive).

With `CC(C)(C)c1ccc(-c2noc(CCC(N)=O)n2)cc1`, the IC50 was 0.55 µM.

On to `CCCCC(=O)NC(c1ccc(N(C)C)cc1)c1ccc2cccnc2c1O` (stereo not given), for which the IC50 was > 79 µM (inactive).

On to `CCCC(=O)NC(c1ccccc1Cl)c1ccc2cccnc2c1O` (stereo not given), for which the IC50 is > 79 µM (inactive).

Turning to `CCOc1ccc(-c2nc(CSCC(=O)NCc3ccco3)c(C)o2)cc1`, the IC50 was 0.29 µM.

Turning to `CC(=O)NC(c1ccc2ccccc2c1)c1ccc2cccnc2c1O` (stereo not given), the IC50 was > 79 µM (inactive).

As for `CC(C)CC(=O)NC(c1ccccc1)c1ccc2cccnc2c1O` (stereo not given), the IC50 is > 79 µM (inactive).

Turning to `CCCCNC(=O)CCc1nc(-c2ccc(C(C)(C)C)cc2)no1`, the concentration for half-maximal inhibition (IC50) is 14.6 µM.

Turning to `Cc1ccc(NC(=O)c2ccc([N+](=O)[O-])o2)cc1C(F)(F)F`, the IC50 was > 79 µM (inactive).

In the case of `COc1ccc(C(=O)Nc2ccc(NC(=O)c3cc4ccccc4o3)cc2)cc1Cl`, the IC50 was > 79 µM (inactive).

Regarding `CCCCC(=O)NC(c1ccc(Cl)cc1)c1ccc2cccnc2c1O` (stereo not given), the IC50 is > 79 µM (inactive).

For `Cc1cccc(NC(=O)c2ccc([N+](=O)[O-])o2)c1C`, the IC50 was > 79 µM (inactive).

In the case of `CCC(=O)NC(c1ccc(C)cc1)c1ccc2cccnc2c1O` (stereo not given), the IC50 was > 79 µM (inactive).

For the compound `Cc1ccc(C(NC(=O)C(C)C)c2ccc3cccnc3c2O)cc1` (stereo not given), the IC50 was > 79 µM (inactive).

With `Cc1ccc2nsnc2c1NC(=O)c1ccc([N+](=O)[O-])o1`, the IC50 is > 79 µM (inactive).

As to `Cc1ccc(C)c(NC(=O)c2ccc([N+](=O)[O-])o2)c1`, the IC50 is > 79 µM (inactive).

With `O=C(Nc1ccc2oc(-c3ccncc3)nc2c1)c1ccc([N+](=O)[O-])o1`, the IC50 is > 79 µM (inactive).

Take `CCCCC(=O)NC(c1ccc(C)cc1)c1ccc2cccnc2c1O` (stereo not given): the IC50 was > 79 µM (inactive).

Take `CCCC(=O)NC(c1ccc(Cl)cc1)c1ccc2cccnc2c1O` (stereo not given): the IC50 is > 79 µM (inactive).

For the compound `CCCCC(=O)NC(c1ccc(C(C)C)cc1)c1ccc2cccnc2c1O` (stereo not given), the IC50 is > 79 µM (inactive).

In the case of `Cc1cc(NC(=O)c2ccc([N+](=O)[O-])o2)cc(-c2nc3ccccc3o2)c1O`, the IC50 is > 79 µM (inactive).

In the case of `CCOc1ccc(-c2nc(CS(=O)(=O)CC(=O)NCc3ccc(F)cc3)c(C)o2)cc1`, the IC50 was > 79 µM (inactive).

As for `COc1cc(-c2nc3n(n2)C(c2ccc(F)cc2)C2=C(CCCC2=O)N3)cc(OC)c1OC` (stereo not given), the IC50 is 29 µM (inactive).

Turning to `COc1ccc(C(NC(=O)CC(C)C)c2ccc3cccnc3c2O)cc1OC` (stereo not given), the IC50 is > 79 µM (inactive).

`O=C(Nc1ccc2oc(-c3cccnc3)nc2c1)c1ccc([N+](=O)[O-])o1`: the IC50 is > 79 µM (inactive).

Take `COc1cc(NC(=O)c2ccc3c(c2)OCO3)ccc1NC(=O)c1cc2ccccc2o1`: the IC50 was > 79 µM (inactive).

Regarding `CN(C)C(=O)CCc1nc(-c2ccc(C(C)(C)C)cc2)no1`, the IC50 was 6.56 µM.

Regarding `COc1ccc(C(NC(=O)CCc2ccccc2)c2ccc3cccnc3c2O)cc1` (stereo not given), the IC50 is > 79 µM (inactive).

Turning to `COc1ccc(C)cc1NC(=O)c1ccc([N+](=O)[O-])o1`, the IC50 was > 79 µM (inactive).

For the compound `Cc1ccc(NC(=O)c2ccc([N+](=O)[O-])o2)cc1C`, the IC50 is > 79 µM (inactive).
